Measurements from patent US9642854B2, “Flavanoid compounds and process for preparation thereof” (Council of Scientific & Industrial Research, priority 2009, dated 2017).
In brackets after ≈: the same amount, converted by molar mass. Like-named read-outs stand apart in the source and are kept apart here.

What was measured:
[1] = test system: H. pylori; assay: Anti H. pylori spectrum (MIC) by agar dilution method; format: cell-based, Helicobacter pylori; conditions: Helicobacter pylori; for MIC50: MIC against 50% of the strains of the panel, read-out: MIC50
Procedure, shortened: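 Agar dilution per CLSI against six clinical isolates and four standard strains on BHI agar with 7% FCS, 0.5% IsoVitalex and DENT. Inoculum ~10^8 CFU/mL; 2-fold compound dilutions from 1.56-100; 72 h microaerophilic at 37 °C. MIC read visually as no growth, in duplicate; MIC50 covers 50% of strains.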

[2] = test system: gastric parietal cell; assay: Histamine-stimulated acid secretion in gastric parietal cell ([14C]-aminopyrine uptake ratio); format: cell-based, rabbit; conditions: histamine 0.1 mM
Protocol: Dose-dependent inhibition of histamine-stimulated aminopyrine (AP) uptake ratio in parietal cell suspension after CPP-1 treatment was measured.
Parietal cells (PC) were isolated from New Zealand White rabbits (weighing ^˜2.5 kg) essentially according to Berglindh (1984) and as modified by Mazzeo et al. (1988). The PC preparations were nearly 90% pure and viable. The effect of CPP-1 on basal and histamine stimulated acid secretion in parietal cells was examined as follows. The PC suspension was incubated for 10 min at 37° C. with gentle stirring and continuous slow top gassing with oxygen. The [^14C]-aminopyrine (115 mCi/mmole) was added to the suspension at […], and incubation was continued for another 10 min. One-milliliter aliquot of PC (^˜5×10^6 cells) was added to various concentrations of CPP-1 in the presence and the absence of histamine (0.1 mM) and incubated for 20 min at 37° C. with slow shaking and oxygen top gassing. At the end of the incubation, the PC suspensions were centrifuged, supernatant carefully aspired off and the pellets solubilized in scintillation fluid containing Triton X-100. The resulting solution was counted in a liquid scintillation counter. The aminopyrine accumulation was determined as the ratio of intra- to extracellular aminopyrine according to Mazzeo et al. (1988).

[3] = test system: H. pylori; assay: MIC and MBC by microbroth dilution assay; format: cell-based, Helicobacter pylori; conditions: for MBC / MIC: Helicobacter pylori
Protocol: The compounds, serially diluted ([…]) in Muller Hinton broth containing 5% FCS, were incubated in 96-well microtitre plate containing fresh cultures of HP001 (˜5.5×10^6 CFU/mL) or ATCC® 43504 (2.65×10^6 CFU/ml) in a final volume of […]. After 72-h of incubation under microaerophilic condition at 37° C., […] of cultures wherein no growth had been detected were streaked on fresh brain heart infusion agar plates for MBC determination.
In microbroth dilution assay employing one clinical and one standard strain, both the bacteriostatic and the bactericidal values were determined for all four compounds as well as for clarithromycin (Table 4). Two-fold serial dilutions were prepared in 96-well microtitre plate containing a total volume of 0.1 mL Mueller Hinton broth supplemented with 5% FCS. A 3-day old liquid culture was diluted 10 times in Mueller Hinton broth and 0.1 mL of these cultures was inoculated into each well to give a final concentration of ˜10^6 CFU/mL. The plates were incubated for 3 days in a microaerophilic atmosphere at 37° C. Following incubation, the plates were examined visually, and the lowest concentration showing complete inhibition of growth was recorded as the MIC of the respective compound (Hachem et al., 1996). Aliquots (0.1 mL) of 72-h culture in which no growth had been detected were taken from the wells of the above microtitre plates and used to streak on fresh BHI agar plates.

[4] = biological target: T1, pig gastric H^+,K^+-ATPase (Sus scrofa, UniProt P19156); assay: Gastric H+,K+-ATPase activity assay; format: biochemical
T1 construct: tubulovesicular and apical membranes, isolated from freshly slaughtered pig gastric mucosa; from tissue; host or cells: pig gastric mucosa (membrane fraction by density gradient centrifugation)
Protocol: The data are averages of 3-4 determinations each carried out in triplicate. The assay system contained 10 mM PIPES-Tris (pH 6.8), 2 mM each of ATP and MgCl2 with or without 10 mM KCl and about […] in a final volume of 1 mL. Both blank and experimental tubes with or without CPP-1 at different concentrations were preincubated with otherwise complete assay mixture at 37° C. for 10 min before initiating the reaction with the substrate ATP. K^+-stimulated activity referred to as H^+,K^+-ATPase activity, was calculated as the difference between the activity in presence of Mg^2+ plus K^+ and the basal activity (Mg^2+-ATPase) in presence of Mg2^+ alone. The specific activity of H^+,K^+-ATPase in control sets was in the range of 40-50 μmole Pi/mg protein/h.
The effect of CPP-1 on gastric H^+K^+-ATPase was investigated. Isolation of pig gastric mucosal membranes, rich in H^+,K^+-ATPase activity, was carried out by density gradient centrifugation technique (Ray, 1978). The enzyme assay system contained 10 mM PIPES-Tris (pH 6.8), 2 mM each of ATP and MgCl with or without 10 mM KCl and about […] in a final volume of 1 mL. Both blank and experimental tubes with or without CPP-1 at different concentrations were preincubated with otherwise complete assay mixture at 37° C. for 10 min before initiating the reaction with the substrate ATP. After appropriate time of incubation with ATP at 37° C., the reaction was terminated with the addition of 1 mL of ice-cold TCA (14%, w/v). The liberated inorganic phosphate (Pi) was estimated essentially by the method of Sanui (1974). K^+-stimulated activity referred to as H^+,K^+-ATPase activity, was calculated as the difference between the activity in presence of Mg^2+ plus K^+ and the basal activity (Mg^2+-ATPase) in presence of Mg^2+ alone. The specific activity of H^+,K^+-ATPase was expressed as micromoles of Pi liberated per hour per milligram protein. The data are averages of 3-4 determinations each carried out in triplicate. The specific activity of H^+,K^+-ATPase in control sets was in the range of 40-50 μmole Pi/mg protein/h.

[5] = ATCC43504, microbroth dilution, ATCC 43504

T1 sequence (P19156 2-1034 limits assumed): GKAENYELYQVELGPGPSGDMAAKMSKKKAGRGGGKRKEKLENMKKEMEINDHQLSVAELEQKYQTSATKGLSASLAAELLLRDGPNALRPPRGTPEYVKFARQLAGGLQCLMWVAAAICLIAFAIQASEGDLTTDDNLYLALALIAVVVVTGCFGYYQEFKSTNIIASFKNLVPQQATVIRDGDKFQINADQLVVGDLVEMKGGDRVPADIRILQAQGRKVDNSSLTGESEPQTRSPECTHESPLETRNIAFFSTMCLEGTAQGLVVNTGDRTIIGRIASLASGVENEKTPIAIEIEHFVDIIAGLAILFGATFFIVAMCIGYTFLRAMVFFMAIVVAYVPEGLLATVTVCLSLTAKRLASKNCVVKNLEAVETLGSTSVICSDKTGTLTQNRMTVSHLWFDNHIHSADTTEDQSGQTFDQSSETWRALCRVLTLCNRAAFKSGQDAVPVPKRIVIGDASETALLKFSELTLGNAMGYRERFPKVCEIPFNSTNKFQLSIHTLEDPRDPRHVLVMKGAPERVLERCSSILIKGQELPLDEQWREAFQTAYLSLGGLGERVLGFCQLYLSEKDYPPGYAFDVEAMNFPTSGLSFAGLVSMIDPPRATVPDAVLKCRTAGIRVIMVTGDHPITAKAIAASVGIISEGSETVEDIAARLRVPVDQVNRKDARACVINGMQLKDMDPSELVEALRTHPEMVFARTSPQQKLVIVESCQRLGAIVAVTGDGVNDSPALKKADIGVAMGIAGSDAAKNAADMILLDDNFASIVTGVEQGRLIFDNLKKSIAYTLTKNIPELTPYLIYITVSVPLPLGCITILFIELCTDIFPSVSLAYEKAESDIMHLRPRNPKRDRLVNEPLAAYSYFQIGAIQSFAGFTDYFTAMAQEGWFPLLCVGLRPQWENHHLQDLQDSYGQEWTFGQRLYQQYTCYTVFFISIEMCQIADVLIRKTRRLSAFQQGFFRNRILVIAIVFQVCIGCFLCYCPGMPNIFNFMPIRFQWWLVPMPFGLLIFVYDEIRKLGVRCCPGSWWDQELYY
T1 sequence (P18434 whole entry partner): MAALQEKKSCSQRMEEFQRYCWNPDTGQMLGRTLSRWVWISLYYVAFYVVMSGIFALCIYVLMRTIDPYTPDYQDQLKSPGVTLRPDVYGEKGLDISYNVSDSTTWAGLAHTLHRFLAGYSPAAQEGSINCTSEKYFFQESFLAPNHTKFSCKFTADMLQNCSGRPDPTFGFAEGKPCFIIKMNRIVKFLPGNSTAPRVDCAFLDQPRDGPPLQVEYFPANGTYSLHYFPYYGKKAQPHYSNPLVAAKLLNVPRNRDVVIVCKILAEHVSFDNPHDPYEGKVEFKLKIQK

`O=c1cc(-c2ccccc2)oc2cc(OCCCCCCN3CCCCC3)cc(O)c12` [CPP-1, 5-Hydroxy-2-phenyl-7-(6-piperidin-1-yl-hexyloxy)-chromen-4-one] was tested, and the MIC50 ([1]; 72 h) was ~3.12 µg/mL (≈ 7.41 µM), the MIC ([1]; 72 h, panel of 6 clinical isolates and 4 standard strains, read-out: MIC Range) was 3.12 to 25 µg/mL (≈ 7.41 to 59.3 µM) and the MIC50 [1] was 3.12 µg/mL (≈ 7.41 µM). The MIC ([1]; clinical strain HP001, read-out: MIC) was 6.25 µg/mL (≈ 14.8 µM), the MIC ([1]; clinical strain HP002, read-out: MIC) was 6.25 µg/mL (≈ 14.8 µM) and the MIC ([1]; clinical strain HP003, read-out: MIC) was < 3.12 µg/mL. The MIC ([1]; clinical strain HP004, read-out: MIC) was < 3.12 µg/mL, the MIC ([1]; clinical strain HP005, read-out: MIC) was < 3.12 µg/mL and the MIC ([1]; clinical strain HP006, read-out: MIC) was < 3.12 µg/mL. The MIC ([1]; standard strain 43504, read-out: MIC) was 6.25 µg/mL (≈ 14.8 µM), the MIC ([1]; standard strain 43629, read-out: MIC) was 25 µg/mL (≈ 59.3 µM) and the MIC ([1]; standard strain 49503, read-out: MIC) was 6.25 µg/mL (≈ 14.8 µM). For the same compound, the MIC ([1]; standard strain 700392, read-out: MIC) was 3.12 µg/mL (≈ 7.41 µM), the IC50 ([2]; Oryctolagus cuniculus, rabbit gastric parietal cell) was ~15 µg/mL and the “activity relative to cimetidine, histamine-stimulated secretion” value [2] was “more active than cimetidine”. The “fold less potent than omeprazole in inhibiting histamine-stimulated secretion” value [2] was “about 5 fold”, the MBC [3, 5] was ~6.25 µg/mL (≈ 14.8 µM) and the MIC [3, 5] was ~6.25 µg/mL (≈ 14.8 µM). It also gave an MBC ([3]; microbroth dilution, HP001) of 12.5 µg/mL (≈ 29.7 µM), an MIC ([3]; microbroth dilution, HP001) of 6.25 µg/mL (≈ 14.8 µM) and an MBC ([3]; range over strains) of 6.25 to 12.5 µg/mL (≈ 14.8 to 29.7 µM). For the same compound, the MIC/MBC dose range ([3]; dose range at which irreversible morphological deformation is induced) was 6.25 to 12.5 µg/mL, the IC50 [4] was 23.7 µM and the “Percent inhibition of H^+, K^+-ATPase activity” value ([4]; 1 mg/assay (so in the source)) was 20%. The “Percent inhibition of H^+, K^+-ATPase activity” value ([4]; 5 mg/assay (so in the source)) was 30% and the “inhibition of H^+,K^+-ATPase” value ([4]; dose range of 1-10 μg/assay) was 10-50%.
